# Test results published in US20120276064A1, “METHODS AND COMPOSITIONS FOR REJUVENATION AND EXPANSION OF STEM CELLS” (priority 2011, published 2012).
# “Also recorded” adds a separate entry of the source.
# Experiments:
# [1] = test system: tibialis anterior muscle of notexin-injured old mice; assay: In vivo force measurements after transplantation of cultured old MuSC progeny; parameters: species or system mouse; details: injured old muscles transplanted with progeny of SB-treated old MuSCs; two months post-injury
# [2] = test system: MuSCs transplanted into tibialis anterior muscle; assay: Transplantation of cultured MuSCs into irradiated NOD/SCID mice, engraftment by bioluminescence imaging; format: in vivo, mouse; details: for Improvement of transplantation function of MuSCs cultured on rigid hydrogels: young and old MuSCs, rigid (~10^6 kPa) hydrogel, 10 μM, one week, 100 cells transplanted
# Procedure: MuSC transplantation. MuSCs were transplanted immediately following FACS isolation or after collection from cell culture directly into the tibialis anterior muscle of recipient mice as previously described. Cells from GFP/Luciferase or Myf5^nLacZl+/Luciferase mice were transplanted into gender-matched, hindlimb-irradiated NOD/SCID (Jackson) mice. NOD/SCID (2-4 months of age, median 2 months) mice were anesthetized with ketamine (2.4 mg per mouse) and xylazine (240 μg per mouse) by intraperitoneal injection then were irradiated by a single dose of 18 Gy administered to the hindlimbs, with the rest of the body shielded in a lead jig. Transplantation was performed within three days post-irradiation. In syngeneic transplant studies, cells from old C57BL/6 mice were transplanted into gender-matched, littermate old C57BL/6 mice (Jackson) following culture for one week on soft hydrogels. Specifically, old C57BL/6 MuSCs were infected with a GFP/Luciferase lentivirus added at day 2 of culture for 24 hours. Recipient old C57BL/6 mice were acutely injured by a single 10 μl intramuscular injection of notexin (10 μg/ml; Latoxan, France) two days prior to cell transplantation, but were not irradiated. Freshly isolated or cultured cells were counted by hemocytometer and resuspended at desired cell concentrations in PBS with 2.5% goat serum and 1 mM EDTA. Cells were collected from hydrogel cultures by incubation with 0.5% trypsin in PBS for 2 min at 37° C. and counted using a hemocytometer. Cells were transplanted by intramuscular injection into the tibialis anterior muscle in a 10 μl volume.
# Tissue histology. Recipient tibialis anterior muscle tissues were prepared for histology as previously described to analyze GFP expression. Transverse sections were incubated with anti-laminin (Millipore, Billerica, Calif.), anti-GFP (Invitrogen) antibodies, and/or anti-β-galactosidase (Abcam, Cambridge, Mass.) with appropriate secondary antibodies (Invitrogen). Nuclei were counter-stained with Hoechst 33342 (Invitrogen). Images were acquired with an AxioPlan2 epi-fluorescent microscope (Carl Zeiss Microimaging, Thornwood, N.Y.) with Plan NeoFluar 10×/0.30NA or 20×/0.75NA objectives (Carl Zeiss) and an ORCA-ER digital camera (Hamamatsu Photonics, Bridgewater, N.J.). Digital images were captured in OpenLab software (Improvision, Waltham, Mass.) and assembled in Photoshop software (Adobe, San Jose, Calif.) with consistent contrast adjustments across all images from the same stain.
# Bioluminescence imaging. Bioluminescence imaging was performed using a Xenogen-100 system, as previously described. Briefly, mice were anesthetized under isofluorane and 100 μL luciferin (0.1 mmol/kg; Caliper LifeSciences, Hopkinton, Mass.) in PBS was administered by intraperitoneal injection. Following luciferin administration, images were acquired every minute for 15 min. Images acquired at 12 min post-luciferin injection were used for analysis. Digital images were recorded and analyzed using Living Image software (Caliper LifeSciences). Images were analyzed with a consistent region-of-interest (ROI) placed over each hindlimb to calculate a bioluminescence signal. A bioluminescence signal value of 80,000 photons/s was used to define a engraftment threshold, as this level corresponds to the histological detection of one or more GFP^+ myofiber (see FIG. 8A). BLI imaging was performed one month post-transplant unless otherwise stated.
# (§1) MuSC culture and treatment. Following isolation, MuSCs were pelleted and resuspended into myogenic cell culture medium containing DMEM/F10 (50:50), 15% FBS, 2.5 ng/ml bFGF, and 1% penicillin/streptomycin. MuSCs were seeded at 1000 cells per well (24-well plate size wells, 2.0 cm^2 surface area) on laminin-tethered hydrogels of either 12 kPa (soft) or ˜10^6 kPa (rigid) rigidities. Cells were maintained at 37° C. in 5% CO2. Media was changed daily. […]
# [3] = test system: old MuSCs transplanted into notexin-injured old muscle; assay: Syngeneic transplantation of cultured old MuSC progeny into notexin-injured old C57BL/6 muscles, engraftment; format: in vivo, mouse
# Procedure: MuSC transplantation. MuSCs were transplanted immediately following FACS isolation or after collection from cell culture directly into the tibialis anterior muscle of recipient mice as previously described. Cells from GFP/Luciferase or Myf5^nLacZl+/Luciferase mice were transplanted into gender-matched, hindlimb-irradiated NOD/SCID (Jackson) mice. NOD/SCID (2-4 months of age, median 2 months) mice were anesthetized with ketamine (2.4 mg per mouse) and xylazine (240 μg per mouse) by intraperitoneal injection then were irradiated by a single dose of 18 Gy administered to the hindlimbs, with the rest of the body shielded in a lead jig. Transplantation was performed within three days post-irradiation. […] Freshly isolated or cultured cells were counted by hemocytometer and resuspended at desired cell concentrations in PBS with 2.5% goat serum and 1 mM EDTA. Cells were collected from hydrogel cultures by incubation with 0.5% trypsin in PBS for 2 min at 37° C. and counted using a hemocytometer. […]
# Bioluminescence imaging. […] Digital images were recorded and analyzed using Living Image software (Caliper LifeSciences). Images were analyzed with a consistent region-of-interest (ROI) placed over each hindlimb to calculate a bioluminescence signal. […]
# young and old MuSCs = assay: Bulk proliferation of MuSCs in soft hydrogel culture; format: cell-based, mouse; details: soft (12 kPa) hydrogel, 10 μM, one week
# Procedure: as §1
# Proliferation assays. MuSC proliferation in hydrogel culture was assessed at both the clonal and bulk levels. […] Cell proliferation was monitored by time-lapse microscopy from 12 hours (day 0) to four days post-seeding as described previously using a PALM/AxioObserver Z1 system (Carl Zeiss MicroImaging) with custom environmental control chamber and motorized stage. Images were recorded every 20 min at 5× magnification. […] After one week, cells were trypsinized and counted on a hemocytometer.
smiles,measurement,setting,value
Oc1ccc(-c2nc(-c3ccncc3)c(-c3ccc(F)cc3)[nH]2)cc1 [SB202190],Specific tetanus force versus pre-injury levels,[1],restored
same,Specific twitch force versus pre-injury levels,[1],exceeded
same,Engraftment frequency for 100-cell transplants,"[2]; old MuSCs cultured one week on soft hydrogel with 10 μM, one month post-transplant",41%
same,Transplant engraftment frequency of the progeny of 10 old MuSCs,"[2]; old MuSCs one week on soft hydrogels + SB (~300 cells), one month post-transplant",79%
same,Extent of engraftment (BLI and histology) compared to freshly isolated MuSCs,"[2]; progeny of 10 old MuSCs after one week on soft hydrogels + SB, listed as SB",not as robust; also recorded: slightly reduced regenerative extent
same,Engraftment frequency for 100-cell transplants,"[2]; young MuSCs cultured one week on soft hydrogel with 10 μM, one month post-transplant",45%
same,Improvement of transplantation function of MuSCs cultured on rigid hydrogels,[2],does not support significant improvement
same,Improvement of transplantation function of MuSCs cultured on rigid hydrogels,[2]; listed as SB,did not support a similar SB-mediated improvement
same,Contribution to myofibers (histology),"[3]; progeny of 100 SB-treated old MuSCs, old recipient muscle, two months after transplantation",substantial contribution to myofibers
same,Engraftment frequency in aged syngeneic recipient muscle,"[3]; progeny of 100 old MuSCs cultured with 10 μM SB, notexin-injured old C57BL/6 mice, one month",88%
same,Increase in total cell numbers (relative to seeding),young and old MuSCs,~30 fold
same,Stimulation of proliferation of hydrogel-cultured MuSCs (in words),young and old MuSCs,profound stimulation of proliferation
